pKi: −log10 of the molar value.

The term pKi denotes the Ki on a negative log10 scale, so that one unit is a factor of ten.

This test addresses Trypanosoma cruzi. The class given is organism-based, CL Brener. Conditions: sf9.
In the case of `CCN(CC)C(=S)S` [DITIOCARB SODIUM], the pKi was 5.30.

Regarding `O=[As](O)(O)c1ccccc1` [PHENYLARSONIC ACID], the negative-log Ki (pKi) is 3.21.

For `OB(O)c1ccccc1` [PHENYLBORONIC ACID], the pKi was 3.07.

Turning to `[N-]=[N+]=[N-]` [SODIUM AZIDE], the pKi is 2.95.

`O=C([O-])O.[Na+]` [SODIUM BICARBONATE] gave a pKi of 3.24.

`O=S([O-])O.[Na+]` [SODIUM BISULFITE] gave a negative logarithm of the Ki (pKi) of 3.04.

The compound `[Br-].[Na+]` [SODIUM BROMIDE] had a pKi of 3.14.

`O=C([O-])[O-].[Na+].[Na+]` [SODIUM CARBONATE] had a pKi of 3.16.

In turn, `[Cl-].[Na+]` [SODIUM CHLORIDE] gave a pKi of 3.09.

`N#CO` [SODIUM CYANATE] had a pKi of 4.10.

As to `[F-].[Na+]` [SODIUM FLUORIDE], the pKi is 3.05.

Turning to `S` [SODIUM HYDROSULFIDE], the pKi is 4.11.

The compound `O=S(=O)(O)ONOS(=O)(=O)O` [SODIUM IMINODISULFATE] gave a pKi of 2.15.

In the case of `[I-].[Na+]` [SODIUM IODIDE], the negative-log Ki (pKi) is 4.36.

With `O=[N+]([O-])[O-].[Na+]` [SODIUM NITRATE], the pKi is 3.11.

With `O=NO` [SODIUM NITRITE], the negative-log Ki (pKi) was 3.15.

`[O-][Cl+3]([O-])([O-])O` [SODIUM PERCHLORATE] showed a pKi of less than 1.00.

`O=S(=O)(O)OOS(=O)(=O)O` [SODIUM PERSULFATE] gave a pKi of 3.08.

`O=S(=O)(O)OS(=O)(=O)O` [SODIUM PYROSULFATE] gave a pKi of 3.12.

Regarding `O=[Se](=O)(O)O` [SODIUM SELENATE], the negative-log Ki (pKi) is 3.18.

Take `N#C[SeH]` [SODIUM SELENOCYANATE]: the pKi is 3.11.

Regarding `O=S(=O)([O-])[O-].[Na+].[Na+]` [SODIUM SULFATE ANHYDROUS], the pKi is 2.16.

Turning to `O=[Te](=O)(O)O` [SODIUM TELLURATE], the negative-log Ki (pKi) is 3.15.

`O=BOB(O)OB(O)OB=O` [SODIUM TETRABORATE] gave a pKi of 1.61.

Regarding `F[B-](F)(F)F.[Na+]` [SODIUM TETRAFLUOROBORATE], the pKi is less than 1.00.

`NS(=O)(=O)O` [SULFAMATE] showed a pKi of 1.97.

Compound `NS(N)(=O)=O` [SULFAMIDE] had a pKi of 3.92.

The values above are taken from ChEMBL document CHEMBL2413077, “Anion inhibition studies of the α-carbonic anhydrase from the protozoan pathogen Trypanosoma cruzi, the causative agent of Chagas disease” (Bioorg Med Chem, 2013).
